Test results published in article PMC11852064 (Antibiotics, 2025).
Like-named read-outs stand apart in the source and are kept apart here.

Key:
[1] = parameters: method as in earlier work; conditions: ref 40, 41; cited from earlier work
[2] = tested on: Staphylococcus aureus, Staphylococcus epidermidis, Enterococcus spp. vancomycin-sensitive (VSE), or vancomycin-resistant Van B biofilms; conditions: ref 37, 38; cited from earlier work
Source text: In some instances, TDM ...

S. aureus = conditions: ref 14; cited from earlier work
[3] = cited from earlier work
[4] = elimination via combination of renal and nonrenal clearance; cited from earlier work
[5] = Population pharmacokinetic analysis of multidose DAL in adult patients (NONMEM); type: in vivo, human
Source text: This prospective/retrospective study was approved by Liguria Territorial Ethics Committee (DALT DRUM Study, Registration number 82/2023—DB id 13014) and carried out from February 2023 to February 2024 at Ente Ospedaliero Ospedali Galliera, Genoa, Italy. Adult patients referred to the Department of Infectious Diseases with documented or suspected Gram-positive infection who failed primary antimicrobial therapy and were prescribed a multidose DAL regimen as a rescue treatment were deemed eligible for inclusion and after signing the informed consent they were enrolled in the study.
To avoid impacting patient lifestyle and routine clinical practice, a sparse sampling strategy was also adopted for outpatients needing blood tests at the convenience of the prescribing physician.
Pharmacokinetic data were analyzed according to a nonlinear mixed-effects modeling approach using NONMEM v7.5 with Pirana modeling workbench, whilst R, version 4.3.2, was used for data formatting and graphical and statistical summaries. No data transformation was applied to PK concentrations prior to the analysis.
From an initial model (one-compartment, first-order elimination with proportional error model), different possible combinations of structural and stochastic models, as well as the inter-individual variability (IIV) of PK parameters were assessed. The effect of several covariates, previously screened for their influence on the PK parameters of the drug under study, was then included in a stepwise manner with backward elimination in the final model. Continuous covariates (age, weight, height, serum albumin, creatinine, creatine clearance, PCR) were centered on their median value and their effect was evaluated by linear and non-linear relationships. Improvement between models was judged based on a decrease in objective function value (OFV) greater than 3.84 units (p < 0.05) using the FOCE-I estimation method, whilst an increase by more than 6.64 units (p < 0.01) upon removal was adopted during backward exclusion. Additionally, during the initial model-building process outliers were detected and excluded from the analysis based on visual examination of data points identified with conditional weighted residuals (CWRES) > 3. To evaluate the influence of outliers, a sensitivity analysis was conducted in which the updated popPK model was run with and without outliers. If a statistically significant change in OFV or in the estimation of key fixed-effects parameters was observed, outliers were considered influential in the modeling steps and commented out.
The predictive performance of the PK models was assessed by appropriateness of the relative standard error (RSE < 30%), graphically by means of classical key diagnostic plots, prediction-corrected visual predictive check (pcVPC), and by inspecting bootstrap results from 1000 resampled datasets. Finally, eta-shrinkage values were calculated to identify and quantify model overfitting.

[6] = cited from earlier work; remark: listed apart in the source
[7] = bootstrap, 1000 resampled datasets
[8] = final two-compartment popPK model, allometric body weight, 30 adult patients, CLcr > 30 mL/min

Substance	EUCAST/USCAST clinical breakpoint MIC [1]	Activity in vitro against established biofilms [2]	Former EUCAST clinical breakpoint of susceptibility (MIC) (S. aureus)	Free fraction of DAL in plasma ([3]; as reported on the label)	Binding to plasma proteins ([3]; ref 5)	Binding to plasma proteins ([3]; ref 28)	Renal share of elimination (renal clearance) [4]	CL, bootstrap median (CI 5-95%) [5, 7]	Q, bootstrap median (CI 5-95%) [5, 7]	V1, bootstrap median (CI 5-95%) [5, 7]	V2, bootstrap median (CI 5-95%) [5, 7]	Q, inter-compartmental clearance, estimate [5, 8]	V1, central volume of distribution, estimate [5, 8]	V2, peripheral volume of distribution, estimate [5, 8]	CL, total body clearance, estimate ([5]; human, in vivo, iv, 1500 mg)	duration of sufficient tissue exposure [6]
Dalbavancin [listing 1 of 2 here]	0.25 µg/mL	potent activity	0.125 µg/mL	7%	93%	93%	approximately 45%	0.0272 (0.0251–0.0294) L/h	0.0223 (0.0175–0.02936) L/h	3.6 (3.4–3.8) L	6.5 (5.6–7.5) L	0.0225 L/h	3.6 L	6.4 L	0.0273 L/h	
Dalbavancin [listing 2 of 2 here]																8 weeks
